Assays:
[1] = molecular target: Sodium-dependent dopamine transporter (Homo sapiens, UniProt Q01959)
[2] = molecular target: Sodium-dependent noradrenaline transporter (Homo sapiens, UniProt P23975)
Chain of Sodium-dependent noradrenaline transporter (P23975 whole entry): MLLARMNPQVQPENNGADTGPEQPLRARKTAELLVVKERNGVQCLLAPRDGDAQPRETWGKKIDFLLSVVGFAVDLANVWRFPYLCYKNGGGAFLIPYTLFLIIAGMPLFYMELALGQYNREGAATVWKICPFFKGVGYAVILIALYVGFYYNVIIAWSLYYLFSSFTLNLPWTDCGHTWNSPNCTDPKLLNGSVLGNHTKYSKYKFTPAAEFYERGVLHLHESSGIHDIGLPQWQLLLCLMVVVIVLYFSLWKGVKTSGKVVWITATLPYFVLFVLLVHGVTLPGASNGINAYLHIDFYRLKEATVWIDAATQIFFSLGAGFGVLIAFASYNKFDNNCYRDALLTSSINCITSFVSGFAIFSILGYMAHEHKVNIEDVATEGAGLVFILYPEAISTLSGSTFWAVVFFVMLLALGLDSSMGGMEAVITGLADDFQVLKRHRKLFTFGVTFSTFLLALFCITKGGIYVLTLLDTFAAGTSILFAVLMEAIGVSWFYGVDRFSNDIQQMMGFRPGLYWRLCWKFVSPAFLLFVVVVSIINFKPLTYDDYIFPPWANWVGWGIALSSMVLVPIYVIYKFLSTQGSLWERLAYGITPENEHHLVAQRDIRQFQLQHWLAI

Chain of Sodium-dependent dopamine transporter (Q01959 whole entry): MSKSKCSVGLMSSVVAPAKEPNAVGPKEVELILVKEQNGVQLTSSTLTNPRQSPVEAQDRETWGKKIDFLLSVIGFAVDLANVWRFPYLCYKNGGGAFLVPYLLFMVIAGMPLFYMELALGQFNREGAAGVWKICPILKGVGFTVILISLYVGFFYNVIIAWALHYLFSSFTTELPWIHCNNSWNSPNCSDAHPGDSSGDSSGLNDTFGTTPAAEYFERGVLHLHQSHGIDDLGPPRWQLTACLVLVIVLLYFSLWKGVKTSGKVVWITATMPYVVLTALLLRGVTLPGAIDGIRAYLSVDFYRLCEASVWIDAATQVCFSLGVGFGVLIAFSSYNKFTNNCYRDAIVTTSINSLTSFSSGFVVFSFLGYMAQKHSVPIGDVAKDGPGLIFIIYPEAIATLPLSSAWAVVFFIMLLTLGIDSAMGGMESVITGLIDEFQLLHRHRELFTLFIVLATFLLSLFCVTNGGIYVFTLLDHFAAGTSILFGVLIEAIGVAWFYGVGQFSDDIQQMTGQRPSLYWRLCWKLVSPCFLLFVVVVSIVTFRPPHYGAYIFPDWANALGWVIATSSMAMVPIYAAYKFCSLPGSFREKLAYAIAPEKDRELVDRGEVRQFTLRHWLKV

COC(=O)C1C(c2ccc(Cl)cc2)CC2CCC1N2CCF (configuration not stated) [MOLI000038]
Ki [1]: 0.00153 µM | Ki [2]: 0.24 µM

— BindingDB's records for doi:10.1016/s0969-8051(99)00080-3 (Emory University, 2000)
